Columns and labels:
ACE [1] = assay: ACE protein expression in HUVECs (Western blot, immunofluorescence); format: cell-based, human; settings: 24 h
Text: Human umbilical vein endothelial cells (HUVECs) were isolated from umbilical cords as previously described ([Jaffe et al., 1973]). They were purchased from ATCC (cat# CRL-1444, Manassas, VA, United States) and cultured in endothelial cell medium (ECM, ScienCell, Carlsbad, CA, United States) supplemented with 5% FBS, 1% endothelial cell growth supplement, and 1% antibiotics (Sigma, St. Louis, MO, United States). Cells harvested between the third and tenth passages were used in the experiments. Cells were cultured until they were ∼80% confluent. […]
After treatment with different concentrations of BAC (Control, DMSO, 25, 50, and 100 μM, dissolved in 0.1% DMSO–DMEM) for 24 h, the cells were washed with PBS three times, fixed in 4% paraformaldehyde for 20 min, permeabilized with 0.3% Triton X-100 for 20 min, and then blocked with 5% BSA for 30 min at room temperature of 25°C. […] The samples were analyzed using a confocal laser scanning microscope (Zeiss LSM 510 META, Oberkochen, Germany).
The cell samples and tissue sample were collected and placed in ice rapidly. […] Protein concentration in cell lysates was measured using a Bio-Rad DC Protein Assay Kit […]. […]

[2] = test system: spontaneously hypertension rats (SHRs); assay: acute experiment: real-time blood pressure after i.v. injection in SHRs; format: in vivo, rat
Protocol: The SHRs were surgically implanted with a catheter via the left femoral artery, vein, and stomach after anesthetizing with 2% pentobarbital sodium (40 mg kg^−1 i.p.,). A pressure sensor was inserted into the terminal of the arterial catheter and connected to a PowerLab system (ADInstruments, New South Wales, Australia) for real-time blood pressure monitoring.
All three MDAs (BAC, BMC, and BHC) were purchased from Nature-Standard Co., Ltd. (Shanghai, China) and their purities were all over 98%. The anti-hypertensive effects of MDAs were studied in both acute and chronic experiments. The 16-week-old SHRs were used in animal experiments, and each group had six rats. In the acute experiment, drug administration was via i.v. injection. For i.v. injection, the animals were randomly assigned into four groups: vehicle (0.1% DMSO–0.9% salt solution, n = 6), low-dose group (0.6 mg kg^−1 body weight, n = 6), medium-dose group (2 mg kg^−1 body weight, n = 6), and high-dose group (6 mg kg^−1 body weight, n = 6). The drug was administered using a venous catheter. In chronic experiments, the animals were randomly assigned into five groups: vehicle (5% Tween 80–0.9% salt solution, n = 6), captopril group (5 mg kg^−1 body weight, n = 6), low-dose group (3 mg kg^−1 body weight, n = 6), medium-dose group (10 mg kg^−1 body weight, n = 6), and high-dose group (30 mg kg^−1 body weight, n = 6). Oral administration with drug or 5% Tween 80–0.9% salt solution was carried out once a day, and continued for 14 days. The drugs were dissolved in 0.1% DMSO–0.9% salt solution for intravenous injection and in 5% Tween 80–0.9% salt solution for oral administration. Blood pressure was recorded in real time.
Real-time blood pressure level was monitored after drug treatment in the acute and chronic experiments. All animals were surgically implanted with a catheter in the left femoral artery. After connection to the monitor, all animals were placed at room temperature of 25°C for 0.5–1 h and the average blood pressure value was calculated based on a real-time blood pressure curve (10 s of every 30 s).

ACE [3] = assay: serum ACE by ELISA in SHRs after 14-day oral administration; format: in vivo, rat; settings: oral 14 days
Text: (§1) All three MDAs (BAC, BMC, and BHC) were purchased from Nature-Standard Co., Ltd. (Shanghai, China) and their purities were all over 98%. The anti-hypertensive effects of MDAs were studied in both acute and chronic experiments. The 16-week-old SHRs were used in animal experiments, and each group had six rats. In the acute experiment, drug administration was via i.v. injection. For i.v. injection, the animals were randomly assigned into four groups: vehicle (0.1% DMSO–0.9% salt solution, n = 6), low-dose group (0.6 mg kg^−1 body weight, n = 6), medium-dose group (2 mg kg^−1 body weight, n = 6), and high-dose group (6 mg kg^−1 body weight, n = 6). The drug was administered using a venous catheter. […] Blood pressure was recorded in real time.
(§2) Blood samples were collected from the left femoral artery of rats at the end point, followed by centrifugation at 1,000 × g for 15 min at 4°C. […] The concentrations of circulating ACE, ACE2, Ang I, Ang II, Ang (1–7), TNF-α, and IL-6 in serum were measured using the ELISA kits [ACE, cat#xy-R2401c, X-Y Biotechnology, Shanghai, China; ACE2, cat#xy-ACE2-Ra, X-Y Biotechnology; Ang I, cat#xy-E12541, X-Y Biotechnology; Ang II, cat#xy-R1430c, X-Y Biotechnology; Ang (1–7), cat#xy-Ang1-7-Ra, X-Y Biotechnology; TNF-α, cat#GM1149, Servicebio, Shanghai, China; IL-6, cat#GM1154, Servicebio] according to the manufacturer’s instructions. […]

ACE2 = assay: serum ACE2 by ELISA in SHRs after 14-day oral administration; format: in vivo, rat; settings: oral 14 days
Text: as §1, §2

IL-6 = assay: serum IL-6 by ELISA in SHRs; format: in vivo, rat; settings: oral 14 days
Text: as §1, §2

For `CCN1CC2(COC)C(O)CC(OC)C34C5CC6(O)C(OC)C(O)C(O)(C5C6OC(=O)c5ccccc5)C(C(OC)C23)C14` (centres unmarked) [BAC, Benzoylaconitine], the “protein expression of ACE” value (ACE [1]; HUVECs, 25, 50, 100 μM) was “inhibit the expression of ACE”, the ACE protein degradation (ACE [1]; HUVECs, BAC 100 μM with or without proteasome inhibitor MG132 20 or 40 nM) was “promote ACE protein degradation” and the “anti-hypertensive effect (in words)” value ([2]; acute experiment, i.v. injection 0.6–6 mg kg^−1) was “observable anti-hypertensive effects”. For the same molecule, the “duration of anti-hypertensive effect” value ([2]; i.v. injection, 0.6 mg kg^−1) was “at least 30 min”, the “lowering of SBP, DBP, and MAP” value ([2]; i.v. injection, lowest dose 0.6 mg kg^−1, 1–5 min) was “more than 20 mmHg” and the “level of ACE in blood” value (ACE [3]) was “decreased”. For the same molecule, the “level of ACE2 in blood” value (ACE2) was “did not change” and the “level of IL-6 in serum” value (IL-6) was “reduced”.

Source: publication PMC8963105, “A Novel Modulator of the Renin–Angiotensin System, Benzoylaconitine, Attenuates Hypertension by Targeting ACE/ACE2 in Enhancing Vasodilation and Alleviating Vascular Inflammation” (Frontiers in Pharmacology, 2022)
